Laboratory results as given in patent publication US10420734B2, “Method of treating cancer using selective estrogen receptor modulators” (Duke University, priority 2014, dated 2019).
Like-named read-outs stand apart in the source and are kept apart here.

Columns and labels:
[1] = cited from earlier work
[2] = target: T1, human estrogen receptor alpha (ESR1) (Homo sapiens, UniProt P03372); experiment: ERE-luciferase reporter assay in transiently transfected SKBR3 cells (ESR1); assay type: cell-based
T1 construct: expressed in transfected cells; host or cells: SKBR3
T1 sequence (P03372 1-595): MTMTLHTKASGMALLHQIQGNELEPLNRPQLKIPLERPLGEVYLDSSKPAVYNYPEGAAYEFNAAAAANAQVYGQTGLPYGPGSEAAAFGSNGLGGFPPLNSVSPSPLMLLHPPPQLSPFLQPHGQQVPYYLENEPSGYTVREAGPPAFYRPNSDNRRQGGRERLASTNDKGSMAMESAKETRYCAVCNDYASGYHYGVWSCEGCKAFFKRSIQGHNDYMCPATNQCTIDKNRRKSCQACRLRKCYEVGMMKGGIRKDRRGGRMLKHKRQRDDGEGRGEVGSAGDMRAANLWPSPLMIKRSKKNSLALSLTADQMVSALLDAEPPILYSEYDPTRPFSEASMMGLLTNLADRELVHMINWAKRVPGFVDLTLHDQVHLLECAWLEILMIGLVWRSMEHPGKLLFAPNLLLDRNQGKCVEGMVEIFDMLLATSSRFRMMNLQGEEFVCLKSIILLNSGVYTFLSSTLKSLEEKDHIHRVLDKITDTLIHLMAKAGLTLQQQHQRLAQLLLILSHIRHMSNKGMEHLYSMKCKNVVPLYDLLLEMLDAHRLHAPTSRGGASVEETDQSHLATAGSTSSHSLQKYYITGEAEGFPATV
Protocol: The ability of RAD1901 (FIG. 5A) to modulate the […] estradiol (E2) dependent transcriptional activity of the human estrogen receptor alpha (ESR1) and human estrogen receptor beta (ESR2) was assessed in transiently transfected SKBR3 cells using a synthetic reporter gene. […] For FIG. 5B, SKBR3 cells were plated in phenol red free media supplemented with charcoal stripped FBS (CFS) 24 hours prior to transfection with an ERE-luciferase reporter together with ESR1 or ESR2 expression vectors. 24 hours after transfection, cells were treated with E2 (10 nM) together with RAD1901 (10^−10-10^−6 M) for 24 hours prior to harvest and analysis of luciferase activity normalized to co-transfected β-galactosidase control. […] For FIG. 5D, MCF7 cells were plated in phenol red free media supplemented with CFS 24 hours prior to treatment, and were treated with 10^−9 M E2 as well as with the indicated ligands (10^−11-10^−6 M) on days 1, 4, and 6 of an 8 day proliferation assay. DNA content as assessed by fluorescence was measured as a surrogate for cell proliferation. The relative increase in DNA fluorescence was calculated by normalizing to baseline values detected in a duplicate plate of cells that was harvested on day 1 prior to the initial treatment. […] For FIG. 5F, expression of ESR1 target genes in tumors was analyzed essentially as in (C).

CCNCCc1ccc(CN(CC)c2cc(OC)ccc2[C@@H]2CCc3cc(O)ccc3C2)cc1 [RAD1901, (R)-6-{2-{ethyl[4-(2-ethylaminoethyl)benzyl]amino}-4-methoxyphenyl}-5,6,7,8-tetrahydronaphthalen-2-ol]
induction of hot flashes ([1]; healthy postmenopausal women): induces hot flashes in healthy postmenopausal women in a dose dependent manner
hot flashes in clinical trials ([1]; higher doses tested): ineffective
hot flashes in clinical trials ([1]; lowest dose tested): effectively suppress hot flashes
brain penetrance ([1]; postmenopausal women): significant brain penetrance
more potent inhibitor of ESR1 than of ESR2 ([2]; ERE-luciferase reporter): 100 fold
inhibition of E2-dependent activation of an ERE-luciferase reporter ([2]; ESR1 isoform, E2 10 nM, RAD1901 10^-10-10^-6 M, 24 hours): effectively inhibited
